Source: US9850247B2 (Almac Discovery Limited, priority 2013, dated 2017)

Legend:
[1] = CLint estimates using human liver microsomes (Method 4); format: in vitro ADME; conditions: pH 7.4, 1 μM compound, read-out: Mics - CLint (HLM CLint)
Procedure: Method 4: Determination of CLint Estimates Using Human liver microsomes Test compounds (final concentration=1 μM; final DMSO concentration=0.1%) were incubated in 0.1 M phosphate buffer pH 7.4 with human liver microsomes (0.5 mg of protein/mL) at 37° C. Reactions were started by addition of NADPH in 0.1 M phosphate buffer pH 7.4 (final concentration 1 mM). 40 μL aliquots were removed at 2, 5, 10, 15, 20, 30, 40 and 50 min. Reactions were quenched in 80 μL of ice-cold methanol. Samples were subsequently frozen overnight then centrifuged at 3500 rpm for 20 min at 4° C. The supernatants were removed and transferred into analytical plates and analysed by LC/MS/MS. LC/MS/MS Method: All samples were analysed on a Waters Acquity I-Class coupled to a Waters Xevo TQD mass spectrometer. A Waters BEH C18 2.1×50 mm 1.7 μm column was used and mobile phases were water and methanol containing 0.1% formic acid as modifier. Analysis was by multiple reaction monitoring and conditions were optimised for each test compound. Data Analyses: From a plot of 1n peak area against time, the gradient of the line is determined. Subsequently, half-life and intrinsic clearance are calculated using the following equations. [formula] [formula] [formula] where V=Incubation volume (μL)/number of cells Method 5: Determination of Kinetic Solubility (in PBS Buffer)

Wee-1 kinase = target: T1, Wee-1 kinase (Homo sapiens, UniProt P30291); assay: Measurement of Wee-1 kinase activity (ADP-Glo luminescent kit); format: biochemical
T1 construct: purchased Invitrogen PV3817
Outline: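 ADP-Glo luminescence reads ADP made over 1 h at RT, after an aliquot of 30 μM ATP and 2.0 μg/mL poly(Lys,Tyr 4:1) substrate. Before that, the kinase sat 30 min with inhibitor in Tris-HCl/MgCl2 buffer with BSA and DTT. IC50 came from regression of percent inhibition.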

T1 sequence (P30291 whole entry): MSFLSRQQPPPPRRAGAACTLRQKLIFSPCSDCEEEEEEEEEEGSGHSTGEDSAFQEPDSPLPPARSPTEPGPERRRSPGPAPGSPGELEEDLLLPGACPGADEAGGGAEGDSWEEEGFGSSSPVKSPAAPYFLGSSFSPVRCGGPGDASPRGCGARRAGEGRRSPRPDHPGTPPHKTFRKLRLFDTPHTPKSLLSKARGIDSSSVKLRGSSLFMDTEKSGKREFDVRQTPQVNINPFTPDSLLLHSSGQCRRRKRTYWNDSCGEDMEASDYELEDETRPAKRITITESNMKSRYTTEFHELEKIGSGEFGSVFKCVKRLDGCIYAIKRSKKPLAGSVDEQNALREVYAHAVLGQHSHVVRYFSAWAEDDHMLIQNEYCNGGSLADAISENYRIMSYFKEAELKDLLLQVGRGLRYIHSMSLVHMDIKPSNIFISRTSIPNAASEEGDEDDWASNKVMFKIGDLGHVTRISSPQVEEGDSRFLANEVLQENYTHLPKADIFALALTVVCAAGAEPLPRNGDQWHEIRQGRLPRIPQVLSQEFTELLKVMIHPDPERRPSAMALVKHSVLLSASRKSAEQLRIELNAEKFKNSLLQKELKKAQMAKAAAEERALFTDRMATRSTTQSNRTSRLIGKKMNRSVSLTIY

Cc1cccc(Cl)c1N1CN(C)c2nc(Nc3ccc(N4C[C@H](C)NC[C@H]4C)cc3)ncc2C1=O [Example 102, 3-(2-chloro-6-methylphenyl)-7-((4-((2R,5S)-2,5-dimethylpiperazin-1-yl)phenyl)amino)-1-methyl-2,3-dihydropyrimido[4,5-d]pyrimidin-4(1H)-one]
microsomal CLint at 1 μM [1]: ≤ 15 µL/min/mg
IC50 (Wee-1 kinase): 10 to 100 nM

CN1CN(c2ccccc2Cl)C(=O)c2cnc(Nc3ccc(N4CCNC(C)(C)C4)cc3)nc21 [Example 106, 3-(2-chlorophenyl)-7-((4-(3,3-dimethylpiperazin-1-yl)phenyl)amino)-1-methyl-2,3-dihydropyrimido[4,5-d]pyrimidin-4(1H)-one]
microsomal CLint at 1 μM [1]: ≤ 15 µL/min/mg
IC50 (Wee-1 kinase): 10 to 100 nM

COCc1cc(Nc2ncc3c(n2)N(C)CN(c2ccccc2Cl)C3=O)ccc1N1CCNCC1 [Example 108, 3-(2-chlorophenyl)-7-((3-(methoxymethyl)-4-(piperazin-1-yl)phenyl)amino)-1-methyl-2,3-dihydropyrimido[4,5-d]pyrimidin-4(1H)-one]
microsomal CLint at 1 μM [1]: ≤ 15 µL/min/mg
IC50 (Wee-1 kinase): 10 to 100 nM

Cc1cc(Nc2ncc3c(n2)N(C)CN(c2ccccc2Cl)C3=O)ccc1N1C[C@@H]2C[C@H]1CN2 [Example 109, 7-((4-((1S,4S)-2,5-diazabicyclo[2.2.1]heptan-2-yl)-3-methylphenyl)amino)-3-(2-chlorophenyl)-1-methyl-2,3-dihydropyrimido[4,5-d]pyrimidin-4(1H)-one]
microsomal CLint at 1 μM [1]: ≤ 15 µL/min/mg
IC50 (Wee-1 kinase): 10 to 100 nM

C[C@@H]1CN(c2ccc(Nc3ncc4c(n3)N(C)CN(c3ccccc3Cl)C4=O)cc2)[C@@H](C)CN1 [Example 111, 3-(2-chlorophenyl)-7-((4-((2S,5R)-2,5-dimethylpiperazin-1-yl)phenyl)amino)-1-methyl-2,3-dihydropyrimido[4,5-d]pyrimidin-4(1H)-one]
microsomal CLint at 1 μM [1]: ≤ 15 µL/min/mg
IC50 (Wee-1 kinase): 10 to 100 nM

Cc1cc(Nc2ncc3c(n2)N(C)CN(c2c(C)cccc2Cl)C3=O)ccc1N1C[C@@H]2C[C@H]1CN2 [Example 112, 7-((4-((1S,4S)-2,5-diazabicyclo[2.2.1]heptan-2-yl)-3-methylphenyl)amino)-3-(2-chloro-6-methylphenyl)-1-methyl-2,3-dihydropyrimido[4,5-d]pyrimidin-4(1H)-one]
microsomal CLint at 1 μM [1]: ≤ 15 µL/min/mg
IC50 (Wee-1 kinase): 10 to 100 nM

CCN1CCN(c2ccc(Nc3ncc4c(n3)N(C)CN(c3ccccc3Cl)C4=O)cc2CO)CC1 [Example 113, 3-(2-chlorophenyl)-7-((4-(4-ethylpiperazin-1-yl)-3-(hydroxymethyl)phenyl)amino)-1-methyl-2,3-dihydropyrimido[4,5-d]pyrimidin-4(1H)-one]
microsomal CLint at 1 μM [1]: 15 to 50 µL/min/mg
IC50 (Wee-1 kinase): 10 to 100 nM

CN1CN(c2c(Cl)cccc2Cl)C(=O)c2cnc(Nc3ccc(N4CCN(C5CC5)CC4)cc3)nc21 [Example 115, 7-((4-(4-cyclopropylpiperazin-1-yl)phenyl)amino)-3-(2,6-dichlorophenyl)-1-methyl-2,3-dihydropyrimido[4,5-d]pyrimidin-4(1H)-one]
microsomal CLint at 1 μM [1]: 15 to 50 µL/min/mg
IC50 (Wee-1 kinase): ≥ 100 nM

CN1CN(c2c(Cl)cccc2Cl)C(=O)c2cnc(Nc3ccc(N4CCN(CCO)CC4)cc3)nc21 [Example 116, 3-(2,6-dichlorophenyl)-7-((4-(4-(2-hydroxyethyl)piperazin-1-yl)phenyl)amino)-1-methyl-2,3-dihydropyrimido[4,5-d]pyrimidin-4(1H)-one]
microsomal CLint at 1 μM [1]: 15 to 50 µL/min/mg
IC50 (Wee-1 kinase): 10 to 100 nM

Cc1cc(Nc2ncc3c(n2)N(C)CN(c2c(Cl)cccc2Cl)C3=O)ccc1N1C[C@H]2C[C@@H]1CN2 [Example 118, 7-((4-((1R,4R)-2,5-diazabicyclo[2.2.1]heptan-2-yl)-3-methylphenyl)amino)-3-(2,6-dichlorophenyl)-1-methyl-2,3-dihydropyrimido[4,5-d]pyrimidin-4(1H)-one]
microsomal CLint at 1 μM [1]: ≤ 15 µL/min/mg
IC50 (Wee-1 kinase): 10 to 100 nM

CN1CN(c2c(Cl)cccc2Cl)C(=O)c2cnc(Nc3ccc(C4CCNCC4)cc3)nc21 [Example 119, 3-(2,6-dichlorophenyl)-1-methyl-7-((4-(piperidin-4-yl)phenyl)amino)-2,3-dihydropyrimido[4,5-d]pyrimidin-4(1H)-one]
microsomal CLint at 1 μM [1]: ≤ 15 µL/min/mg
IC50 (Wee-1 kinase): 10 to 100 nM

COCCN1CCN(c2ccc(Nc3ncc4c(n3)N(C)CN(c3c(Cl)cccc3Cl)C4=O)cc2)CC1 [Example 120, 3-(2,6-dichlorophenyl)-7-((4-(4-(2-methoxyethyl)piperazin-1-yl)phenyl)amino)-1-methyl-2,3-dihydropyrimido[4,5-d]pyrimidin-4(1H)-one]
microsomal CLint at 1 μM [1]: 15 to 50 µL/min/mg
IC50 (Wee-1 kinase): ≥ 100 nM

Cc1cc(Nc2ncc3c(n2)N(C)CN(c2c(Cl)cccc2Cl)C3=O)ccc1N1C[C@H]2C[C@@H]1CN2C [Example 121, 3-(2,6-dichlorophenyl)-1-methyl-7-((3-methyl-4-((1R,4R)-5-methyl-2,5-diazabicyclo[2.2.1]heptan-2-yl)phenyl)amino)-2,3-dihydropyrimido[4,5-d]pyrimidin-4(1H)-one]
microsomal CLint at 1 μM [1]: 15 to 50 µL/min/mg
IC50 (Wee-1 kinase): 10 to 100 nM

CCN1CCN(c2ccc(Nc3ncc4c(n3)N(C)CN(c3c(Cl)cccc3Cl)C4=O)cc2)CC1 [Example 122, 3-(2,6-dichlorophenyl)-7-((4-(4-ethylpiperazin-1-yl)phenyl)amino)-1-methyl-2,3-dihydropyrimido[4,5-d]pyrimidin-4(1H)-one]
microsomal CLint at 1 μM [1]: 15 to 50 µL/min/mg
IC50 (Wee-1 kinase): 10 to 100 nM

COC[C@H]1CNCCN1c1ccc(Nc2ncc3c(n2)N(C)CN(c2c(Cl)cccc2Cl)C3=O)cc1 [Example 129, (R)-3-(2,6-dichlorophenyl)-7-((4-(2-(methoxymethyl)piperazin-1-yl)phenyl)amino)-1-methyl-2,3-dihydropyrimido[4,5-d]pyrimidin-4(1H)-one]
microsomal CLint at 1 μM [1]: ≤ 15 µL/min/mg
IC50 (Wee-1 kinase): ≤ 10 nM

COC[C@@H]1CNCCN1c1ccc(Nc2ncc3c(n2)N(C)CN(c2c(Cl)cccc2Cl)C3=O)cc1 [Example 130, (S)-3-(2,6-dichlorophenyl)-7-((4-(2-(methoxymethyl)piperazin-1-yl)phenyl)amino)-1-methyl-2,3-dihydropyrimido[4,5-d]pyrimidin-4(1H)-one]
microsomal CLint at 1 μM [1]: 15 to 50 µL/min/mg
IC50 (Wee-1 kinase): 10 to 100 nM

CN1CN(c2c(Cl)cccc2Cl)C(=O)c2cnc(Nc3ccc(N4CCCCC4)c(CO)c3)nc21 [Example 131, 3-(2,6-dichlorophenyl)-7-((3-(hydroxymethyl)-4-(piperidin-1-yl)phenyl)amino)-1-methyl-2,3-dihydropyrimido[4,5-d]pyrimidin-4(1H)-one]
microsomal CLint at 1 μM [1]: ≥ 50 µL/min/mg
IC50 (Wee-1 kinase): ≥ 100 nM

C[C@@H]1CN(c2ccc(Nc3ncc4c(n3)N(C)CN(c3c(Cl)cccc3Cl)C4=O)cc2OC(F)F)CCN1 [Example 132, (R)-3-(2,6-dichlorophenyl)-7-((3-(difluoromethoxy)-4-(3-methylpiperazin-1-yl)phenyl)amino)-1-methyl-2,3-dihydropyrimido[4,5-d]pyrimidin-4(1H)-one]
microsomal CLint at 1 μM [1]: ≤ 15 µL/min/mg
IC50 (Wee-1 kinase): 10 to 100 nM

CN1CN(c2c(Cl)cccc2Cl)C(=O)c2cnc(Nc3ccc(N4CCN5CCOC[C@@H]5C4)c(CO)c3)nc21 [Example 133, (S)-3-(2,6-dichlorophenyl)-7-((4-(hexahydropyrazino[2,1-c][1,4]oxazin-8(1H)-yl)-3-(hydroxymethyl)phenyl)amino)-1-methyl-2,3-dihydropyrimido[4,5-d]pyrimidin-4(1H)-one]
microsomal CLint at 1 μM [1]: 15 to 50 µL/min/mg
IC50 (Wee-1 kinase): 10 to 100 nM
